Publication PMC5100313, “A new tool for the chemical genetic investigation of the Plasmodium falciparum Pfnek-2 NIMA-related kinase” (Malaria Journal, 2016)
pIC50: −log10 of the molar value.

Target: T1, Pfnek-2(V24C) (Plasmodium falciparum, UniProt C0H4G2, V24C)
T1 construct: gene PF3D7_0525900
T1 sequence (C0H4G2 1-286 V24C): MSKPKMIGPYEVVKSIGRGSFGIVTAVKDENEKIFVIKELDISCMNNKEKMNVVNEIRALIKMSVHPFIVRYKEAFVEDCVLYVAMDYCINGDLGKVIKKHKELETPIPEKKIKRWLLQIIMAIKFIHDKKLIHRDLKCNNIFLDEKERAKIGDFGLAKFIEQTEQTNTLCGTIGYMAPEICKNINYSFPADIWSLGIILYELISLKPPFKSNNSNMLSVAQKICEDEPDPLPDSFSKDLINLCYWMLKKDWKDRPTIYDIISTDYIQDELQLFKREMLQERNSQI
Experiment: in vitro […]-ATP kinase assay (MBP substrate), washout, intact-protein LC-MS (mass shift […] Da)
Type: biochemical

## C#Cc1nc(Nc2ccc(S(N)(=O)=O)cc2)nc2[nH]cnc12 [NCL-00016066, 4-(6-ethynyl-9H-purin-2-ylamino) benzene sulfonamide]
  pIC50: 6.30
